Experimental data taken from patent publication US20260325464A1, “COMPOSITIONS FOR MODULATING THE EXPRESSION OF AQUAPORINS IN NEURODEGENERATIVE DISORDERS” (priority 2023, published 2026).
Like-named read-outs stand apart in the source and are kept apart here. Marks after values point to notes of the source that are not given here.

How the values were obtained:
[1] = tested on: acetylcholinesterase (AChE); conditions: for Ach E: p.o. + AlCl3 (100 mg/kg, i.p.), brain homogenate, Mean ± SEM, n = 6
Experimental: At the conclusion of the study, the rats were euthanized by decapitation, and their brains were swiftly removed and placed in ice-cold saline solution. The cortex and hippocampus were carefully isolated and submerged in an ice-cold water container to halt enzymatic reactions. The levels of acetylcholinesterase (AChE) and butyrylcholinesterase (BChE) in the cortex and hippocampus regions of the brain were determined using Ellman's method from 1961. Approximately 100 mg of the isolated brain sections were weighed and homogenized in phosphate buffer (0.1 M, pH 8.0). To 0.4 mL of the homogenate, the following components were added: 2.6 mL of phosphate buffer (0.1 M, pH 8.0), 100 μL of 10 mM 5,5-dithio-bis-(2-nitrobenzoic acid) (DTNB), and 20 μL of acetylthiocholine iodide (AChI) solution (0.075 M). The mixture was thoroughly mixed. The absorbance was then measured at 412 nm for a duration of 5 minutes.
n=6, All the values were expressed in Mean±SEM (n=6). The statistical analysis was carried out using one way ANOVA.

Tau = Tau level in plasma (ELISA), AlCl3 Alzheimer's model; format: in vivo, rat; conditions: 5, 10 and 20 mg/kg, FIG. 2
Excerpt: The levels of Tau, β-amyloid (1-42) and Apolipoprotein E were estimated. using ELISA kit (Krishgen Biosystems, India). All the protein biomarkers of AD were elevated in the AD control group.

Parkinson's disease [2] = assay: Y-maze test in rats with reserpine-induced Parkinson's disease; format: in vivo, rat; conditions: for No of arm entries / Spontaneous alterations (%): p.o. + Reserpine (4 mg/kg, s.c.), Y maze, Mean ± SEM, n = 6
Excerpt: (§1) The induction of Parkinson's disease and measurement of other parameters were done as per the reported protocol (Santos et al., Cognitive, motor and tyrosine hydroxylase temporal impairment in a model of parkinsonism induced by reserpine. Behav Brain Res. 2013; 253:68-77 and Shishehbore et al. A novel kinetic spectrophotometric method for the determination of dopamine in biological and pharmaceutical samples. J Chem. 2013; 2013:1-6). Induction of Parkinson's disease was done by administering Resperine, which inhibits the monoamine vesicular transporters, thus decreasing the levels of monoamine neurotransmitters in the brain. Following pretreatment for 14 days with Gingerenone A, the rat groups received subcutaneous injections of reserpine (4 mg/kg) for the final five days of the treatment regimen. Resperine (5 mg) was dissolved in 1 ml of 1% acetic acid and then diluted tenfold with distilled water to achieve a final concentration of 500 μg/ml. The normal control group received saline with 1% acetic acid […], administered from day 10 to day 14. Thirty minutes following the administration of reserpine on the 14th day, behavioural assessments were conducted using the Open Field test, Y Maze, and Catalepsy tests to evaluate changes. Rats administered with Carbidopa, a known drug for the management of Parkinson's disease was also used for comparison. Upon completion of the study, brains were harvested for biochemical analyses and histopathological studies. The experimental group is depicted in table 10.
Y-maze test—In the Y-maze test, spontaneous alterations serve as an indicator of working short-term memory.
The maze consisted of a triangular central area with three equilateral arms labeled A, B, and C, each measuring 35 cm in length, 25 cm in height, and 10 cm in width. During the test, each rat was placed in the central area, facing one of the arms. An entry was scored when all four paws of the rat entered an arm. Spontaneous alterations in behavior were defined as consecutive entries into different arms (e.g., ABC, BCA, or CAB, but not CAC). The maximum number of spontaneous alterations ([…]) and the percentage of spontaneous alterations (actual number of alterations divided by the maximum alterations, multiplied by 100) were calculated for each rat (Kraeuter et al., The Y-Maze for Assessment of Spatial Working and Reference Memory in Mice. Methods Mol Biol. 2019; 1916:105-111).

Alzheimer's disease = assay: Morris water maze (MWM) test in rats with AlCl3-induced Alzheimer's disease; format: in vivo, rat; conditions: for Escape Latency Time: p.o. + AlCl3 (100 mg/kg, i.p.), MWM at 17th day, Mean ± SEM, n = 6
Experimental: Morris water maze (MWM)—This test was performed as per protocol established by Ishola et al., Protective role of Spondiasmombin leaf and Cola acuminata seed extracts against scopolamine-induced cognitive dysfunction. Alexandria J Med. 2018; 54(1):27-39. MWM is a round water tank “diameter: 110 cm and height: 60 cm” consisting of a white surface and that is filled using opaque water (Temp. 26±2° C.) to a distance (depth) of 30 cm. The MWM tank circle is divided into 4 equal quadrants [North Quadrant 1, East Quadrant 2, West Quadrant 3, and South Quadrant 4]. Further, it consists of a 10 cm diameter platform in a constant position. Index of memory improvement is measured by the Escape Latency Time (ELT)—which is the time the animal takes to find the platform.
The MWM plays an important role in the testing of learning and memory in rodent models of Alzheimer's Disease. It is used to test hippocampal-dependent learning, including acquisition of spatial memory and long-term spatial memory (Bromley-Brits et al., Morris water maze test for learning and memory deficits in Alzheimer's disease model mice, J Vis Exp., 2011 Jul. 20:(53):2920). In this study, learning was impaired in the Alzheimer's group.

Parkinson's disease [3] = assay: Catalepsy test in rats with reserpine-induced Parkinson's disease; format: in vivo, rat; set-up: catalepsy score at 30 min / catalepsy score at 60 min / catalepsy score at 120 min: unit not given here; conditions: for catalepsy score at 30 min / catalepsy score at 60 min / catalepsy score at 120 min: p.o. + Reserpine (4 mg/kg, s.c.), Mean ± SEM, n = 6
Excerpt: as §1
NeuroMol Med. 202022(2):314-330. Catalepsy in rats' manifests as an unresponsiveness to external stimuli accompanied by muscle rigidity. During the catalepsy test, rats were positioned on a wooden bar elevated 3-9 cm above the surface, with their forelimbs resting on it after administration of reserpine. The time taken for the rats to correct their posture was recorded as an indicator of catalepsy. Catalepsy ceased either when the rats climbed up the bar or when their forelimbs touched the floor. Observations were made at 30, 60, and 120 minutes after administration. All assessments were conducted in a quiet environment at a temperature of 23-25 degrees Celsius, with a maximum observation time of 5 minutes per trial.

For `COc1cc(CC/C=C/C(=O)CCc2ccc(O)c(OC)c2)ccc1O` [Gingerenone A], the “Ach E” value ([1]; 5 mg/kg) was 11.76 ± 0.93 10^−6 /mol/g of tissue, the “Ach E” value ([1]; 10 mg/kg) was 8.77 ± 0.49** 10^−6 /mol/g of tissue and the “Ach E” value ([1]; 20 mg/kg) was 6.87 ± 0.34** 10^−6 /mol/g of tissue. The “Acetyl cholinesterase (in words)” value ([1]; AlCl3 model, Table 5) was “significantly inhibited Acetyl cholinesterase”, the “Tau levels in plasma (in words)” value (Tau) was “significantly reduced” and the “No of arm entries” value (Parkinson's disease [2]; 5 mg/kg) was 9.37 ± 0.29. For the same compound, the “Spontaneous alterations (%)” value (Parkinson's disease [2]; 5 mg/kg) was 21.43 ± 1.08 %, the “No of arm entries” value (Parkinson's disease [2]; 10 mg/kg) was 11.57 ± 0.92 and the “Spontaneous alterations (%)” value (Parkinson's disease [2]; 10 mg/kg) was 26.87 ± 1.05 %. For the same compound, the “No of arm entries” value (Parkinson's disease [2]; 20 mg/kg) was 12.09 ± 1.39, the “Spontaneous alterations (%)” value (Parkinson's disease [2]; 20 mg/kg) was 26.21 ± 0.98 % and the “working memory in Y-maze (in words)” value (Parkinson's disease [2]; reserpine model, Table 12) was “significantly increase the working memory with increase in entries in the different arms with more number of alterations”. For the same compound, the “Escape Latency Time” value (Alzheimer's disease; 5 mg/kg) was 34.47 ± 3.87 s, the “Escape Latency Time” value (Alzheimer's disease; 10 mg/kg) was 27.73 ± 2.18 s and the “Escape Latency Time” value (Alzheimer's disease; 20 mg/kg) was 27.82 ± 2.63 s. The “learning and memory in MWM (in words)” value (Alzheimer's disease; AlCl3 model, Table 4) was “significantly improved learning and memory”, the “catalepsy score at 30 min” value (Parkinson's disease [3]; 5 mg/kg) was 2.46 ± 0.15 and the “catalepsy score at 60 min” value (Parkinson's disease [3]; 5 mg/kg) was 2.52 ± 0.54. For the same compound, the “catalepsy score at 120 min” value (Parkinson's disease [3]; 5 mg/kg) was 2.43 ± 0.70, the “catalepsy score at 30 min” value (Parkinson's disease [3]; 10 mg/kg) was 1.76 ± 0.11 and the “catalepsy score at 60 min” value (Parkinson's disease [3]; 10 mg/kg) was 1.72 ± 0.73. For the same compound, the “catalepsy score at 120 min” value (Parkinson's disease [3]; 10 mg/kg) was 1.71 ± 0.75, the “catalepsy score at 30 min” value (Parkinson's disease [3]; 20 mg/kg) was 1.58 ± 0.16 and the “catalepsy score at 60 min” value (Parkinson's disease [3]; 20 mg/kg) was 1.55 ± 0.32. For the same compound, the “catalepsy score at 120 min” value (Parkinson's disease [3]; 20 mg/kg) was 1.50 ± 0.82 and the “muscle rigidity in catalepsy test (in words)” value (Parkinson's disease [3]; reserpine model, Table 13) was “significantly improved muscle rigidity”.
